Source: patent US10231996B2, “Biocampatible polymer coated silver Prussian blue nanoparticles (SPB-NPs: Ag3[Fe(CN) 6])” (COUNCIL OF SCIENTIFIC & INDUSTRIAL RESEARCH, priority 2015, dated 2019)

Columns and labels:
[1] = system: B16F10 aggressive murine melanoma tumor; assay: In vivo B16F10 melanoma tumor model in C57BL6/J mice; details: free Dox 2.5 mg/kg, after four IP injections, compared to SPB(1,1)NPs treated mice
Procedure: In vivo tumor model was carried out using male C57BL6/J mice (8-9 weeks old). Approximately, 2.5×10^5 B16F10 cells resuspended in 100 μL of sterile HBSS were subcutaneously injected to lower right abdomen of male mice. […] All the treatments were Intraperitoneally (IP) injected on alternate days over a period of 15 days. The volume of tumor was measured by using the formula (0.5×ab^2), where ‘a’ represents the longest dimension and ‘b’ represents the shortest dimension of the tumors. Also, the weight and picture of the tumors were taken after the sacrifice. […] The loss of body weight can correlate with the nonspecific side effects of Dox in normal physiological function.

E. coli [2] = assay: Colony forming units (CFU), E. coli; format: cell-based; details: positive control 2 mg/ml, 24 hours
Procedure: (§1) Streptomycin at 2 mg/ml concentration was used as positive control. The plated were incubated for 24 hours at 37° C. The number of colonies appeared on the surface of the LB agar plates were counted. […] We previously reported the antibacterial activity of biosynthesized silver nanoparticles (Mukherjee et al. Theranostics, 2014; 4: 316-335).

Bacillus subtilis = assay: Colony forming units (CFU), Bacillus subtilis; format: cell-based; details: positive control 2 mg/ml, 24 hours
Procedure: as §1

E. coli [3] = assay: Measurement of lipid peroxidation; format: cell-based; details: positive control; (sample O.D/Control O.D)×100
Procedure: Lipid peroxidation was measured according to standard protocol. […] 1.5 ml of 20% acetic acid (pH 3.5), 1.5 ml of 0.8% thiobarbituric acid (in 1.1% SDS) and 0.05 ml of 20% TCA were added and mixed thoroughly. The tubes were then incubated for 60 minutes at 100° C. and 5 ml of butanol was added to each tube. The tubes were then centrifuged at 4000 rpm for 15 minutes. The pink supernatant was measures at 532 nm. The % of lipid peroxidation was measured by using the following formula: % of lipid peroxidation=(sample O.D/Control O.D)×100.

COc1cccc2c1C(=O)c1c(O)c3c(c(O)c1C2=O)C[C@@](O)(C(=O)CO)C[C@@H]3O[C@H]1C[C@H](N)[C@H](O)[C@H](C)O1 [Dox, doxorubicin]
body weight [1]: significant loss of bodyweight

[H]/N=C(/N)N[C@H]1[C@H](O)[C@@H](O)[C@H](O[C@@H]2O[C@@H](C)[C@](O)(C=O)[C@H]2O[C@@H]2O[C@@H](CO)[C@H](O)[C@@H](O)[C@@H]2NC)[C@@H](N/C(N)=N\[H])[C@@H]1O [streptomycin]
bacterial growth (colonies) (E. coli [2]): bacterial colonies were observed
bacterial growth (colonies) (Bacillus subtilis): bacterial colonies were observed
lipid peroxidation (E. coli [3]): 60%
